From patent US9101609B2, “CD37 immunotherapeutic and combination with bifunctional chemotherapeutic thereof” (EMERGENT PRODUCT DEVELOPMENT SEATTLE, LLC, priority 2008, dated 2015)
Entries after “also recorded” stand apart in the source; their conditions may differ. Marks after values point to notes of the source that are not given here.

How the values were obtained:
[1] = system: DOHH2 human tumor xenograft; assay: CAS024 combined with bendamustine in subcutaneous DOHH2 xenografts in SCID mice; format: in vivo; settings: CAS024 10 μg IV days 0, 4, 8; Bendamustine 10 mg/kg IP days 0, 2, 4, 7, 9
Procedure: Establishment of tumor xenografts and sorting into treatment groups.
Monitoring and endpoints. Mice were monitored daily by visual inspection. […] Tumor volumes were calculated as described above.

CD37 [2] = molecular target: T1, CD37 (Homo sapiens, UniProt P11049); assay: FACS competitive binding / cross blocking of FITC-conjugated anti-CD37 on BJAB cells; settings: FIGS. 5A-5E
T1 sequence (P11049 1-281): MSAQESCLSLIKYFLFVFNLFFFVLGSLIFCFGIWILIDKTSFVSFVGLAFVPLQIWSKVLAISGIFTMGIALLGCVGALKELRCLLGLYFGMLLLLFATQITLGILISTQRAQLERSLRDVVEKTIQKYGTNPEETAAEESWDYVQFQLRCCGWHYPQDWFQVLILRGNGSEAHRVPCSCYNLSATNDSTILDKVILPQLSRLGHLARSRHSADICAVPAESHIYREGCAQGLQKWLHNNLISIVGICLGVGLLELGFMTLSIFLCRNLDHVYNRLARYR
Procedure: FITC labeled antibody conjugates were titrated from 10 ng/mL to 10 μg/mL in an initial binding study to determine the optimal amount to use in the blocking studies. The level chosen was just below saturating amounts, and was kept constant in the subsequent assays, while levels of blocking antibody were increased over a 10-fold range. Data were plotted as percent of maximal binding versus concentration of blocking antibody, so that higher levels indicate less efficient blocking, while lower levels indicate more efficient blocking activity.
For competitive binding assays, 2.5×10^5 BJAB cells were incubated in 96-well V-bottom plates in staining media (PBS with 2% mouse sera) with the FITC-conjugated anti-CD37 mAbs at 1.25 μg/mL in the presence of unconjugated anti-CD37 MAb at the indicated concentrations (2.5, 1.25, 0.6, or 0.3 μg/ml) or staining media for 45 minutes on ice in the dark. Blocking antibodies and FITC labeled antibody conjugates were added to reactions prior to addition of cells. The cells were then washed […] with PBS and fixed with 1% paraformaldehyde (USB, Cleveland, Ohio). The treated cells were analyzed by flow cytometry using a FACsCalibur instrument and CellQuest software (BD Biosciences, San Jose, Calif.). […]

[3] = system: chronic lymphocytic leukemia (CLL) cells; settings: in vitro; cited from earlier work
[4] = system: DOHH2 human tumor xenograft; assay: CAS-024 and Rituxan as single agents in established DOHH2 xenograft model in SCID mice; format: in vivo; settings: for Death (other than for Tumor Size Sacrifice) / Median Survival Time: 200 μg IP days 0, 4, 8; for Median Survival Time: cumulative 600 μg; for mean tumor volume compared with human IgG treated group: 200 μg IP, day 4 through day 11
Procedure: The objective of this study was to examine the efficacy of CAS-024 and RITUXAN® (rituximab) as single agents in a model of established human tumor (DOHH2) xenografts in SCID mice.
Mice were monitored daily by visual inspection. […] Tumor volumes were calculated as described above. Tumor volumes on the last day that all mice were alive in each group were also expressed in terms of tumor volumes relative to day 0, using the formula: […]

Rec-1 cells [5] = assay: Rec-1 growth inhibition (ATP viable cell detection), combination index with chemotherapeutic agents; format: cell-based, human; settings: 96 hours
Procedure: Rec-1 cells, a CD37+ human B cell line established from a patient with mantle cell lymphoma, were tested for growth inhibition in response to crosslinked CAS-024 in the presence or absence of doxorubicin, vincristine, or fludarabine (see FIG. 7). CAS-024 was preincubated with anti-human IgG F(ab)′2 to crosslink the protein. Cells were cultured with medium alone or with medium containing various concentrations of the crosslinked CAS-024 protein, in the presence or absence of various concentrations of doxorubicin, vincristine, or fludarabine. Cultures were incubated for 96 hours and growth inhibition was assessed using an ATP viable cell detection system (i.e., viable cells quantified by ATP release).
A numerical value, assigned to each drug combination at predefined dose levels, enabled quantitative drug/drug interaction comparisons between different drug combinations. Results were expressed as combination indices (CI) vs. effect level, in which effect level represented percent inhibition of cell growth. The mean CI±SEM for each effect level was averaged over three experiments. A CI<1.0 was considered synergy, CI=1.0 additivity, and CI>1.0 antagonism.

Rec-1 cells [6] = assay: Rec-1 growth inhibition (ATPlite), combination index with bendamustine; format: cell-based, human; settings: crosslinked CAS024 combined with bendamustine; 96 hr
Procedure: (§1) The final volume in each well was 150 μL.

SU-DHL-6 cells = assay: SU-DHL-6 growth inhibition (ATPlite), combination index; format: cell-based, human
Procedure: as §1

[7] = system: DOHH2 human tumor xenograft; assay: Dose response in established subcutaneous DOHH2 xenograft model in SCID mice; settings: days 0, 4, 8
Procedure: The objective of this experiment was to examine the dose response to treatment with CAS-024 in a model of established subcutaneous human tumor (DOHH2) xenograft model in SCID mice.
On day 8 post-tumor inoculation, palpable tumors were apparent in a majority of mice. The tumor-bearing mice were sorted into four groups with equivalent mean tumor volumes (n=14 per group; 2 cages of 5 mice and 1 cage of 4 mice for each group). The day of the sort was defined as day 0. Tumor diameters were determined with a pair of calipers and tumor volumes were calculated using the formula: V=½[length×(width)^2].
Tumor-bearing groups of SCID mice were treated on days 0, 4, and 8 via IP injection of 0.2 mL of PBS containing 200 μg of huIgG (negative control) or 200, 100, 30, 10, or 3 μg of CAS-024. The two lowest dose solutions of CAS-024 were prepared on the day of injection to avoid the need to add a carrier protein to the most dilute solutions.
Dose solutions were prepared in similar volumes and the contents of the tubes were noted on removable labels. An investigator who was not treating or assessing the mice placed a color code on each tube and noted the code and identity of the tube contents in a laboratory notebook. Mice were monitored daily by visual inspection. Weights were determined weekly, and tumor diameters were determined at least 3 times per week (M, W, F) by an observer blinded (see above) to the treatment groups. Tumor volumes were calculated as described above. Mice were euthanized if their tumor volume reached more than 1500 mm^3 (or 1200 mm^3 on Fridays). Death was not an endpoint in the tumor protocols and, unless noted otherwise, “survival” of a mouse was determined by the time it was euthanized due to its tumor volume reaching the predetermined limits.
All statistical analyses were performed using GraphPad Prism software. Significant differences in mean tumor volumes and mean relative tumor volumes were determined using a one-way ANOVA for nonparametric data (Kruskal-Wallis test) with Dunn's multiple comparison post test. To examine differences between each of the CAS-024 treated groups and the huIgG group, all groups were compared. For comparisons between the CAS-024 groups only, the huIgG group was excluded. In addition, the high and middle dose (200, 100, and 30 μg) groups were analyzed as a one data set, and the middle and low dose (30, 10, and 3 μg) groups were analyzed as another data set. Significant differences in survival of mice over time were determined using Kaplan-Meier survival analysis with a log-rank test for comparing survival curves. Significant differences in the incidence of tumor-free mice were determined using Fisher's exact test. p values<0.05 were considered significant.

CD37 [8] = molecular target: T1, CD37; assay: FMAT competition binding assay against labeled CAS-006 on Ramos cells; set-up: CD-37 found on Ramos cells (a B-lymphoblastoid cell line derived from a Burkitt lymphoma); endogenous in cells; host or cells: Ramos cells
Text: A competition assay was used to compare the binding affinity of different anti-CD37 specific small modular immunopharmaceutical (SMIP) molecules to CD-37 found on Ramos cells (a B-lymphoblastoid cell line derived from a Burkitt lymphoma). An SEC purified chimeric anti-CD37 SMIP molecule (CAS-006, SEQ ID NO:247) was labeled with the FMAT Blue® fluorescence dye (Applied Biosystems) and used as the standard to compete with purified unlabeled chimeric anti-CD37 SMIP molecule (positive control) and purified unlabeled humanized anti-CD37 SMIP test molecules. […] The plates were incubated at room temperature for 30 min and read on an 8200 Cellular Detection System (Applied Biosystems) gated for middle cell size and low signal.
A competition assay as described in Example 4 was used to compare the binding affinity of different mouse-human hybrid anti-CD37 SMIP molecules compared to CAS-024 binding to Ramos cells. An SEC purified chimeric anti-CD37 SMIP molecule (CAS-006, SEQ ID NO:247) was labeled with the FMAT Blue® fluorescence dye (Applied Biosystems) and used as the standard to compete with purified unlabeled chimeric anti-CD37 SMIP molecule (CAS-006, positive control) and purified unlabeled humanized anti-CD37 SMIP test molecules—-CAS-002 (SEQ ID NO:48), CAS-003 (SEQ ID NO:52), CAS-014 (SEQ ID NO:251), CAS-017 (SEQ ID NO:252), and CAS-024 (SEQ ID NO:253).

## Cn1c(CCCC(=O)O)nc2cc(N(CCCl)CCCl)ccc21 [Bendamustine, 4-[5-[Bis(2-chloroethyl)amino]-1-methylbenzimidazol-2-yl]butanoic acid, reference compound]
[1]
  Median Survival Time: 17 days
  clinical signs of toxicity: scruffy coats and diarrhea

## CAS-006: chimeric anti-CD37 SMIP protein (mVLmVH) with variable regions of mouse mAb G28-1, SEQ ID NO:247
CD37 [2]
  blocking activity (inhibition of binding of FITC-conjugated anti-CD37): highest level of blocking activity
[3]
  combination effect with fludarabine on killing of CLL cells: acts synergistically

## G28-1 VH (M99F, Y102S)—VL (T25A) scFv (SSC-P) H WCH2 WCH3 [CAS-024]
[4]
  Death (other than for Tumor Size Sacrifice): 1/15^f
  Median Survival Time: Undefined^d,e
  mean tumor volume compared with human IgG treated group: significantly lower than that of the human IgG treated group
Rec-1 cells [5]; crosslinked CAS-024 combined with doxorubicin
  combination index (CI): additive
Rec-1 cells [5]; crosslinked CAS-024 combined with fludarabine
  combination index (CI): < 1.0
Rec-1 cells [5]; crosslinked CAS-024 combined with vincristine
  combination index (CI): < 1.0
Rec-1 cells [6]
  combination effect on target cell growth (CI): synergistic inhibitory effects
SU-DHL-6 cells; CAS-024 combined with chlorambucil
  combination effect on cell growth (CI): did not result in synergistic inhibitory effects
SU-DHL-6 cells; crosslinked CAS024 combined with bendamustine, 96 hr
  combination effect on cell growth (CI): synergistically inhibited
[1]
  Median Survival Time: 17^b Days
  clinical signs of toxicity: No clinical signs of toxicity
[7]; 3 μg per IP injection
  Death (Not Due to Large Tumor Volume): 0/14
[7]; 3 μg per IP injection, cumulative 9 μg
  Median Survival Time: 19 days
[7]; 10 μg per IP injection
  Death (Not Due to Large Tumor Volume): 0/14
[7]; 10 μg per IP injection, cumulative 30 μg
  Median Survival Time: 28 days
[7]; 30 μg per IP injection
  Death (Not Due to Large Tumor Volume): 0/14
[7]; 30 μg per IP injection, cumulative 90 μg
  Median Survival Time: 35 days
[7]; 100 μg per IP injection
  Death (Not Due to Large Tumor Volume): 1/14^h
[7]; 100 μg per IP injection, cumulative 300 μg
  Median Survival Time: Undefined
[7]; 200 μg per IP injection
  Death (Not Due to Large Tumor Volume): 0/14
[7]; 200 μg per IP injection, cumulative 600 μg
  Median Survival Time: Undefined^ef
[7]; 3 to 200 μg per IP injection
  effect on the growth of DOHH2 tumors: dose-dependent inhibitory effect
CD37 [8]; FIG. 3
  greater affinity for CD37 than humanized VLVH anti-CD37 SMIP molecules with 16 amino acid linker: ≤ 4 fold
CD37 [8]; competition with FMAT Blue labeled CAS-006
  binding affinity for CD37 compared with parent CAS-006: substantially the same affinity; also recorded: same binding affinity as CAS-006

## rituximab [Rituxan ®, reference compound]
[4]
  Death (other than for Tumor Size Sacrifice): 0/15
  Median Survival Time: 43 days
  mean tumor volume compared with human IgG treated group: significantly lower than that of the human IgG treated group
